{"source": "ChEMBL document CHEMBL3112460", "about": "“Successful reduction of off-target hERG toxicity by structural modification of a T-type calcium channel blocker” (Bioorg Med Chem Lett, 2014)", "key": {"[1]": {"experiment": "Half life in Sprague-Dawley rat at 10 mg/kg, iv", "assay_type": "ADME, organism-based", "design": "dose 10 mg/kg, route intravenous", "conditions": "in vivo"}, "[2]": {"experiment": "Half life in human microsomes", "assay_type": "ADME, Microsome"}, "Plasma": {"test_system": "Plasma", "experiment": "Metabolic stability in rat plasma after 2 hrs", "assay_type": "ADME, cell-free"}, "[3]": {"experiment": "AUC (0 to infinity) in Sprague-Dawley rat at 10 mg/kg, iv", "assay_type": "ADME, organism-based", "design": "time infinity, dose 10 mg/kg, route intravenous", "conditions": "plasma"}, "[4]": {"molecular_target": "Voltage-gated inwardly rectifying potassium channel KCNH2 (Homo sapiens, UniProt Q12809)", "sequence (Q12809 whole entry)": "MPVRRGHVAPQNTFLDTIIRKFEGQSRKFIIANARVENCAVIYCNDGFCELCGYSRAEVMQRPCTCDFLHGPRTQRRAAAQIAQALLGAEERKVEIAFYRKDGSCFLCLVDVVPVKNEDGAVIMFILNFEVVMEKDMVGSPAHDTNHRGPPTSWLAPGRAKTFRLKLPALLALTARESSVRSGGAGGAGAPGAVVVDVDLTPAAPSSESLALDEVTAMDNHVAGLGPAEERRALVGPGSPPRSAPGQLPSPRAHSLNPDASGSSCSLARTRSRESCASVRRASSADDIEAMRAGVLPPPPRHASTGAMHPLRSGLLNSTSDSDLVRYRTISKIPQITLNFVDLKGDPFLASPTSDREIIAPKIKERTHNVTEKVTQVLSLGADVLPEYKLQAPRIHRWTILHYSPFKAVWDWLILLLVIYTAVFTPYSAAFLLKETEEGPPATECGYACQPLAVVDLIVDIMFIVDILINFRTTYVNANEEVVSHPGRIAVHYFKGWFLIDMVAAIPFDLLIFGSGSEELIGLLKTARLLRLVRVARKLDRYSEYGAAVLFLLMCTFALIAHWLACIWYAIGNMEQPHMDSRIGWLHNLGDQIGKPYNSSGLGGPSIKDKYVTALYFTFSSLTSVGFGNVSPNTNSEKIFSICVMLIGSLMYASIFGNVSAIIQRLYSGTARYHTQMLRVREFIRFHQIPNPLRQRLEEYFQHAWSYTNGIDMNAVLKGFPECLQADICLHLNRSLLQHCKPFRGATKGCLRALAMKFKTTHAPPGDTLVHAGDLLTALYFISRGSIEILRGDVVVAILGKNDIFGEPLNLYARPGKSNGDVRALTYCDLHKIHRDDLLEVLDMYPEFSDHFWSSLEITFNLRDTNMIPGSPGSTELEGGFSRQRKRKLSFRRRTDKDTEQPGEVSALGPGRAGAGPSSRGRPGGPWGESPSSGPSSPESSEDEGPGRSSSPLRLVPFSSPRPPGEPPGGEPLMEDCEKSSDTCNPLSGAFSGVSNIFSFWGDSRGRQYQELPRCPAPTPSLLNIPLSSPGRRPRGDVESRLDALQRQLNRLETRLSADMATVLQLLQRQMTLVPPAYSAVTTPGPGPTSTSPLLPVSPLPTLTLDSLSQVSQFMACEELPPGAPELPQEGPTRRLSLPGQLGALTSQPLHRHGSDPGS", "experiment": "Inhibition of human ERG by whole-cell patch clamp method"}, "[5]": {"molecular_target": "Voltage-dependent T-type calcium channel subunit alpha-1G (Homo sapiens, UniProt O43497)", "sequence (O43497 whole entry)": "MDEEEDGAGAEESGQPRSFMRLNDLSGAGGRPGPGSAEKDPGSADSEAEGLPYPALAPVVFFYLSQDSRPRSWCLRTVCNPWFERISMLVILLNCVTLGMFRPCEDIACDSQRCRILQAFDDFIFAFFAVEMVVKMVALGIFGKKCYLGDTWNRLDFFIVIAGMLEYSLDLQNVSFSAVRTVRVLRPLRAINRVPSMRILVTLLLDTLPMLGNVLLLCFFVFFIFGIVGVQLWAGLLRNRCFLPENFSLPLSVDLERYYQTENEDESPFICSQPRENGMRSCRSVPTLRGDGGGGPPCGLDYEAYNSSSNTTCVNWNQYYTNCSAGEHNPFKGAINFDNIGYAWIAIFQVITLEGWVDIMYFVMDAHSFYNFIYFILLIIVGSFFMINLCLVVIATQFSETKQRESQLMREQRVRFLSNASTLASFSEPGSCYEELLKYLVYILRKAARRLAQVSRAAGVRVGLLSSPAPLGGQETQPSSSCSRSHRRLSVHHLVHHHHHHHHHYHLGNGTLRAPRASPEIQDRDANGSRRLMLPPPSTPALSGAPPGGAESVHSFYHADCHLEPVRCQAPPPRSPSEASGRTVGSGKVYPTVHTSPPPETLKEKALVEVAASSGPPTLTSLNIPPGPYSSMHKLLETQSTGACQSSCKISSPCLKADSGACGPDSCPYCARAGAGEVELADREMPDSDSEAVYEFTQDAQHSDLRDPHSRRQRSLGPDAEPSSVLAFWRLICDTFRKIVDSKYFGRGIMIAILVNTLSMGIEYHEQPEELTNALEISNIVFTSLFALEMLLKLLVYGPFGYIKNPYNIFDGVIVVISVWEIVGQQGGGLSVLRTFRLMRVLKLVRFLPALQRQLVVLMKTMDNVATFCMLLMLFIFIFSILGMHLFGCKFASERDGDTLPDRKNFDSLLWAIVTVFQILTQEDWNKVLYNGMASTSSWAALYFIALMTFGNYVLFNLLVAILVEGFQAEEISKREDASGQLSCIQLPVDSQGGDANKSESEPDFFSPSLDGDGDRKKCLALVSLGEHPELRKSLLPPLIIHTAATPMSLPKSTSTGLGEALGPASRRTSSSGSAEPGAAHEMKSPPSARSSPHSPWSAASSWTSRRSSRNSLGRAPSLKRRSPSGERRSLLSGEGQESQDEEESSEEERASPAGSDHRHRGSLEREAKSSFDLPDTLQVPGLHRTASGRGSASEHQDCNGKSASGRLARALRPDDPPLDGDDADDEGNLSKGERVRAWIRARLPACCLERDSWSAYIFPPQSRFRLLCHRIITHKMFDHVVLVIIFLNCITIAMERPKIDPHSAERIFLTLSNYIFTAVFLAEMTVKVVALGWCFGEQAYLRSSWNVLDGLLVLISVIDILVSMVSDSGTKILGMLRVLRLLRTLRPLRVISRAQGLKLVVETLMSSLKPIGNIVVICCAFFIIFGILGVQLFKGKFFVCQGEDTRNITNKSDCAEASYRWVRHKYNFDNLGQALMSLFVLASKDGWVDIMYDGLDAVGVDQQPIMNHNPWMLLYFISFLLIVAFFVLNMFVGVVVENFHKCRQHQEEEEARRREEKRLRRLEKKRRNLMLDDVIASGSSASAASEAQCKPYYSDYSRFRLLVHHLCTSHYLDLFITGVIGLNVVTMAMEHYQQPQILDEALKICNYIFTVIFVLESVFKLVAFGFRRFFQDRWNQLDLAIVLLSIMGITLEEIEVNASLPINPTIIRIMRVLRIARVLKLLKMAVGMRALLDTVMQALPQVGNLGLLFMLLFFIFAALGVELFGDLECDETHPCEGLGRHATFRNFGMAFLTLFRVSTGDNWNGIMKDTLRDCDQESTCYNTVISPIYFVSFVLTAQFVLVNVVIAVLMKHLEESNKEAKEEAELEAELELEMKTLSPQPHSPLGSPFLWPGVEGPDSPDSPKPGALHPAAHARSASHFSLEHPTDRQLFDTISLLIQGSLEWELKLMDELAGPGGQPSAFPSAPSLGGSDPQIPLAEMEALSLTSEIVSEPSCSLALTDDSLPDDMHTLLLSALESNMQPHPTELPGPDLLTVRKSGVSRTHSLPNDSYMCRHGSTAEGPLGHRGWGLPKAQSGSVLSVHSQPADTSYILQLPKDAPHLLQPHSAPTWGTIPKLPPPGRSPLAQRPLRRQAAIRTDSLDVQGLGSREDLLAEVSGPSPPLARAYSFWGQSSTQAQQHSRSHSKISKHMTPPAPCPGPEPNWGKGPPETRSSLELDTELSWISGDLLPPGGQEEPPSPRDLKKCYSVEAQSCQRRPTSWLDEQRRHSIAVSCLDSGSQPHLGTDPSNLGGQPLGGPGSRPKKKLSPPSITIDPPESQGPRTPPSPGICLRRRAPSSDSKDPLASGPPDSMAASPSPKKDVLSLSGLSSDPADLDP", "experiment": "Inhibition of T-type calcium channel subunit alpha-1G (unknown origin) expressed in HEK293 cells assessed as inactivation of channel current at holding potential of 30 to 100mV by whole-cell patch clamp method", "assay_type": "cell-based"}, "[6]": {"experiment": "AUC (0 to infinity) in Sprague-Dawley rat at 10 mg/kg, po", "assay_type": "ADME, organism-based", "design": "time infinity, dose 10 mg/kg, route oral", "conditions": "plasma"}, "[7]": {"experiment": "Bioavailability in Sprague-Dawley rat at 10 mg/kg, […]", "assay_type": "ADME, organism-based", "conditions": "in vivo"}, "[8]": {"experiment": "Tmax in Sprague-Dawley rat at 10 mg/kg, po", "assay_type": "ADME, organism-based", "design": "dose 10 mg/kg, route oral", "conditions": "in vivo"}, "[9]": {"experiment": "Cmax in Sprague-Dawley rat at 10 mg/kg, po", "assay_type": "ADME, organism-based", "design": "dose 10 mg/kg, route oral", "conditions": "in vivo"}, "[10]": {"molecular_target": "Voltage-dependent L-type calcium channel subunit alpha-1C (Homo sapiens, UniProt Q13936)", "experiment": "Inhibition of L-type calcium channel subunit-1C (unknown origin) expressed in HEK293 cells by whole-cell patch clamp method", "assay_type": "cell-based"}, "[11]": {"experiment": "Half life in Sprague-Dawley rat at 10 mg/kg, po", "assay_type": "ADME, organism-based", "design": "dose 10 mg/kg, route oral", "conditions": "in vivo"}, "HEK293 [12]": {"test_system": "HEK293", "experiment": "Selectivity ratio of IC50 for L-type calcium channel subunit-1C (unknown origin) to IC50 for T-type calcium channel subunit alpha-1G (unknown origin) expressed in HEK293 cells", "assay_type": "cell-based", "conditions": "Homo sapiens"}, "HEK293 [13]": {"test_system": "HEK293", "experiment": "Selectivity ratio of IC50 for human ERG to IC50 for T-type calcium channel subunit alpha-1G (unknown origin) expressed in human HEK293 cells", "assay_type": "cell-based"}}}
{"compound": "COC(=O)C(CCCN(C)CCCc1nc2ccccc2[nH]1)(c1ccc(Br)cc1)C(C)C", "note": "(stereo unspecified)", "values": [{"measurement": "half-life", "setting": "[1]", "value": 77.7, "unit": "min"}, {"measurement": "half-life", "setting": "[2]", "value": 120, "unit": "min"}, {"measurement": "Stability", "setting": "Plasma", "value": "Stable"}, {"measurement": "AUC(0-inf)", "setting": "[3]", "value": 906, "unit": "ng·h/mL"}]}
{"compound": "COc1ccccc1N1CCN(CCCC(C(=O)O)(c2ccc(Br)cc2)C(C)C)CC1", "note": "(stereo unspecified)", "values": [{"measurement": "IC50", "setting": "[4]", "value": 3.96, "unit": "µM"}, {"measurement": "IC50", "setting": "[5]", "value": 3260, "unit": "nM"}]}
{"compound": "COC(=O)C(CCCN1CC=C(c2ccccc2OC)CC1)(c1ccc(Br)cc1)C(C)C", "note": "(stereo unspecified)", "values": [{"measurement": "IC50", "setting": "[4]", "value": 1.26, "unit": "µM"}, {"measurement": "IC50", "setting": "[5]", "value": 3240, "unit": "nM"}]}
{"compound": "COC(=O)C(CCC(=O)N1CCN(c2ccccc2OC)CC1)(c1ccc(Br)cc1)C(C)C", "note": "(stereo unspecified)", "values": [{"measurement": "half-life", "setting": "[1]", "value": 294, "unit": "min"}, {"measurement": "half-life", "setting": "[2]", "value": 220, "unit": "min"}, {"measurement": "AUC(0-inf)", "setting": "[6]", "value": 467, "unit": "ng·h/mL"}, {"measurement": "bioavailability", "setting": "[7]", "value": 9.2, "unit": "%"}, {"measurement": "Stability", "setting": "Plasma", "value": "Stable"}, {"measurement": "Tmax", "setting": "[8]", "value": 30, "unit": "min"}, {"measurement": "Cmax", "setting": "[9]", "value": 218, "unit": "ng/mL"}, {"measurement": "IC50", "setting": "[10]", "value": 5.9, "unit": "µM"}, {"measurement": "half-life", "setting": "[11]", "value": 132, "unit": "min"}, {"measurement": "IC50", "setting": "[5]", "value": 654, "unit": "nM"}, {"measurement": "AUC(0-inf)", "setting": "[3]", "value": 5080, "unit": "ng·h/mL"}]}
{"compound": "COC(=O)C(CCC(=O)N(C)CCCc1nc2ccccc2[nH]1)(c1ccc(Br)cc1)C(C)C", "note": "(stereo unspecified)", "values": [{"measurement": "half-life", "setting": "[1]", "value": 106, "unit": "min"}, {"measurement": "half-life", "setting": "[2]", "value": 240, "unit": "min"}, {"measurement": "AUC(0-inf)", "setting": "[6]", "value": 5800, "unit": "ng·h/mL"}, {"measurement": "bioavailability", "setting": "[7]", "value": 60.3, "unit": "%"}, {"measurement": "Stability", "setting": "Plasma", "value": "Stable"}, {"measurement": "Tmax", "setting": "[8]", "value": 30, "unit": "min"}, {"measurement": "Ratio IC50", "setting": "HEK293 [12]", "value": 96.8}, {"measurement": "Cmax", "setting": "[9]", "value": 4580, "unit": "ng/mL"}, {"measurement": "IC50", "setting": "[4]", "value": 12.5, "unit": "µM"}, {"measurement": "IC50", "setting": "[10]", "value": 5.42, "unit": "µM"}, {"measurement": "half-life", "setting": "[11]", "value": 47.7, "unit": "min"}, {"measurement": "IC50", "setting": "[5]", "value": 56, "unit": "nM"}, {"measurement": "AUC(0-inf)", "setting": "[3]", "value": 9620, "unit": "ng·h/mL"}, {"measurement": "Ratio IC50", "setting": "HEK293 [13]", "value": "> 220"}]}
{"compound": "COC(=O)C(CCCN1CCC(c2ccccc2OC)CC1)(c1ccc(Br)cc1)C(C)C", "note": "(stereo unspecified)", "values": [{"measurement": "IC50", "setting": "[5]", "value": 2650, "unit": "nM"}]}
{"compound": "CC(C)C(CCCN(C)CCCc1nc2ccccc2[nH]1)(C(=O)O)c1ccc(Br)cc1", "note": "(stereo unspecified)", "values": [{"measurement": "IC50", "setting": "[4]", "value": 2.34, "unit": "µM"}, {"measurement": "IC50", "setting": "[5]", "value": 1360, "unit": "nM"}]}
